In patent USRE50528E1, “Compounds and compositions for modulating EGFR mutant kinase activities” (Yuhan Corporation, priority 2014, dated 2025):
pIC50: −log10 of the molar value.

Legend:
KDR = target: T1, KDR (Homo sapiens, UniProt P35968); assay: Kinase inhibition assay, KDR; format: biochemical; settings: biochemical potency;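 also: purified full-length human KDR, 30 min preincubation with compound, then 1 h reaction with ATP and Ulight-Jak1 peptide substrate, phosphorylation read by Lance Europium antibody detection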
T1 construct: Purified human, full-length SYK, KDR; purchased Carna Biosciences

[1] = target: T2, EGFR mutant Del19 (E746-A750) (Homo sapiens, UniProt P00533, DEL746-750); assay: Kinase inhibition assay, EGFR del E746-A750; format: biochemical; settings: read-out: EGFR mutants Del19 (E746-A750);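 also: truncated human EGFR mutant kinase, two-hour preincubation with compound, then one-hour reaction with ATP and ULight-PolyGT peptide, LANCE Europium-antibody phosphorylation readout, IC50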
T2 construct: truncated human JAK3, EGFR mutants such as del E746-A750; purchased Carna Biosciences

EGFR mutant L858R = target: T3, EGFR mutant L858R (Homo sapiens, UniProt P00533, L858R); assay: Kinase inhibition assay, EGFR L858R; format: biochemical; settings: read-out: EGFR mutants L858R;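 also: truncated human EGFR L858R kinase with compound preincubation, ULight-PolyGT peptide phosphorylation read by Europium-antibody Lance detection, IC50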
T3 construct: truncated human JAK3, EGFR mutants such as del E746-A750; purchased Carna Biosciences

EGFR mutant L858R/T790M = target: T4, EGFR mutant L858R/T790M (Homo sapiens, UniProt P00533, L858R/T790M); assay: Kinase inhibition assay, EGFR L858R/T790M; format: biochemical; settings: read-out: EGFR mutants L858R/T790M;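 also: truncated human enzyme preincubated two hours with compound, then one hour with one millimolar ATP and ULight-PolyGT peptide, Europium-labeled antibody detection, IC50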
T4 construct: truncated human JAK3, EGFR mutants such as del E746-A750; purchased Carna Biosciences

JAK3 = target: T5, JAK3 (Homo sapiens, UniProt P52333); assay: Kinase inhibition assay, JAK3; settings: biochemical potency;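 also: IC50 against purified truncated human JAK3 preincubated with compound, then reacted with ATP and ULight-Jak1 peptide, phosphorylation read by Europium-labeled antibody LANCE detection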
T5 construct: EGFR and JAK3 (JH1domain-catalytic) kinases, and mutant forms thereof; purchased Carna Biosciences

SYK = target: T6, SYK (Homo sapiens, UniProt P43405); assay: Kinase inhibition assay, SYK; format: biochemical; settings: biochemical potency;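 also: purified full-length human SYK pre-incubated 30 min with compound, then ULight-TK peptide phosphorylation for 1 h, detected with Europium-labeled antibody in Lance buffer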
T6 construct: Purified human, full-length SYK, KDR; purchased Carna Biosciences

EGFR mutant T790M = target: T7, EGFR mutant T790M (Homo sapiens, UniProt P00533, T790M); assay: Kinase inhibition assay, EGFR mutant T790M; settings: biochemical potency;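 also: truncated human EGFR mutant enzyme preincubated two hours with compound, then ATP plus ULight-PolyGT peptide for one hour, Europium-labeled antibody LANCE detection, IC50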
T7 construct: truncated human JAK3, EGFR mutants such as del E746-A750; purchased Carna Biosciences

EGFR mutant Del19/T790M = target: T8, EGFR mutant Del19/T790M (Homo sapiens, UniProt P00533, DEL746-750/T790M); assay: Kinase inhibition assay, EGFR del E746-A750/T790M; format: biochemical; settings: read-out: EGFR mutants Del19/T790M
T8 construct: truncated human JAK3, EGFR mutants such as del E746-A750; purchased Carna Biosciences

H2073 (EGFR wildtype) = assay: Cell viability assay, H2073; format: cell-based; settings: NCI-H2073; cellular potency; 72-hour incubation; ATPLite;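 also: NSCLC cell line whose survival relies on wildtype EGFR, treated with serially diluted compound, cytotoxic effect judged from remaining cell viability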
[2] = tested on: PC9 (EGFR del E746-A750 mutant); assay: Cell viability assay, PC9; format: cell-based; settings: for Selectivity over wildtype, Wildtype vs mutant H2073/PC9 (fold): cellular potency ratio; for pIC50: cellular potency, 72-hour incubation, ATPLite, read-out: EGFR Mutants PC9;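 as to all read-outs here: NSCLC PC9 cells, whose viability relies on EGFR del E746-A750, exposed to serially diluted compound for 72 h at 37 °C, ATPLite read-out, IC50, H2073 as EGFR wildtype line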
[3] = tested on: H1975 (EGFR L858R/T790M mutant); assay: Cell viability assay, H1975; format: cell-based; settings: for pIC50: Homo sapiens, NCI-H1975, cellular potency, 72-hour incubation, ATPLite, read-out: EGFR Mutants H1975; for Selectivity over wildtype, Wildtype vs mutant H2073/H1975 (fold): cellular potency ratio;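 as to all read-outs here: NSCLC cells whose survival relies on EGFR L858R/T790M, exposed 72 h to serially diluted compound, ATP-based viability readout, with the H2073 line (wildtype EGFR dependent) as wildtype comparator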

T8 sequence (P00533 with tags, fused parts or gaps DEL746-750/T790M limits assumed): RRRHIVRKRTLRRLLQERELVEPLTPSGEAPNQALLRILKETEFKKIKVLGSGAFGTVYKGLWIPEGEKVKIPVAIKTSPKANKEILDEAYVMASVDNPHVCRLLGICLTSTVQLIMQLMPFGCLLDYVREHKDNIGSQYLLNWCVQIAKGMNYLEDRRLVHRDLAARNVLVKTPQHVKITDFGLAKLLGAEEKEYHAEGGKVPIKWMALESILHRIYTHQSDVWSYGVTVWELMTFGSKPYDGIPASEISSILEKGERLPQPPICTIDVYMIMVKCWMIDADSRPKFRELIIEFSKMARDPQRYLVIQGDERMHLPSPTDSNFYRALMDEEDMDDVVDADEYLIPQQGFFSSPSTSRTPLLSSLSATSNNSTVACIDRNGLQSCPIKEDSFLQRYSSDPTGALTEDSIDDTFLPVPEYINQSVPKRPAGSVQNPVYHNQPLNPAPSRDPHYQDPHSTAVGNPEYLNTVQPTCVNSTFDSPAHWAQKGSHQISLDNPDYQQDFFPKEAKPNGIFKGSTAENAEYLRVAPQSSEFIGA
T7 sequence (P00533 669-1210 T790M limits assumed): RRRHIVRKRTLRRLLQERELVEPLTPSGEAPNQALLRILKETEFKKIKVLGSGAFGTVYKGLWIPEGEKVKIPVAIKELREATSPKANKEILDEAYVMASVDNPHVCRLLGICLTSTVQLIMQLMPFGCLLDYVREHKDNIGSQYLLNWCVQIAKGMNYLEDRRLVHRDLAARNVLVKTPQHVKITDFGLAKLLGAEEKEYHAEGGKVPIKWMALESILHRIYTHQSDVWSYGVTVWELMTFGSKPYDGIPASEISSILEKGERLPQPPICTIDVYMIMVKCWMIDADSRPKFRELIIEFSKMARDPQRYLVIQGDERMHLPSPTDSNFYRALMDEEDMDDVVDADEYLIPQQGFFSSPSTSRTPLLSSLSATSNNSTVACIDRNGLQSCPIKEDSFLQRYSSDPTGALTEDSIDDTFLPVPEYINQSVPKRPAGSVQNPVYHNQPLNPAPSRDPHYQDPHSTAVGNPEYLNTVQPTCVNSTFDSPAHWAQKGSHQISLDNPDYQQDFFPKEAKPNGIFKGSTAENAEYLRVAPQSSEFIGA
T5 sequence (P52333 822-1111 limits assumed): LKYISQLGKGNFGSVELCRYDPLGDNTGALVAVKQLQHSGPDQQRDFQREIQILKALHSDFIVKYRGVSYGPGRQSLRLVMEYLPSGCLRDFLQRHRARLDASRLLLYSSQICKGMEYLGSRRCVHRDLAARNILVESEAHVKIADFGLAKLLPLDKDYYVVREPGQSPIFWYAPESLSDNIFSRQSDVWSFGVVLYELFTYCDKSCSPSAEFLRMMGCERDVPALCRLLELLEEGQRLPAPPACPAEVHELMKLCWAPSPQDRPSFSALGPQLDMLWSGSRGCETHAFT
T1 sequence (P35968 20-1356): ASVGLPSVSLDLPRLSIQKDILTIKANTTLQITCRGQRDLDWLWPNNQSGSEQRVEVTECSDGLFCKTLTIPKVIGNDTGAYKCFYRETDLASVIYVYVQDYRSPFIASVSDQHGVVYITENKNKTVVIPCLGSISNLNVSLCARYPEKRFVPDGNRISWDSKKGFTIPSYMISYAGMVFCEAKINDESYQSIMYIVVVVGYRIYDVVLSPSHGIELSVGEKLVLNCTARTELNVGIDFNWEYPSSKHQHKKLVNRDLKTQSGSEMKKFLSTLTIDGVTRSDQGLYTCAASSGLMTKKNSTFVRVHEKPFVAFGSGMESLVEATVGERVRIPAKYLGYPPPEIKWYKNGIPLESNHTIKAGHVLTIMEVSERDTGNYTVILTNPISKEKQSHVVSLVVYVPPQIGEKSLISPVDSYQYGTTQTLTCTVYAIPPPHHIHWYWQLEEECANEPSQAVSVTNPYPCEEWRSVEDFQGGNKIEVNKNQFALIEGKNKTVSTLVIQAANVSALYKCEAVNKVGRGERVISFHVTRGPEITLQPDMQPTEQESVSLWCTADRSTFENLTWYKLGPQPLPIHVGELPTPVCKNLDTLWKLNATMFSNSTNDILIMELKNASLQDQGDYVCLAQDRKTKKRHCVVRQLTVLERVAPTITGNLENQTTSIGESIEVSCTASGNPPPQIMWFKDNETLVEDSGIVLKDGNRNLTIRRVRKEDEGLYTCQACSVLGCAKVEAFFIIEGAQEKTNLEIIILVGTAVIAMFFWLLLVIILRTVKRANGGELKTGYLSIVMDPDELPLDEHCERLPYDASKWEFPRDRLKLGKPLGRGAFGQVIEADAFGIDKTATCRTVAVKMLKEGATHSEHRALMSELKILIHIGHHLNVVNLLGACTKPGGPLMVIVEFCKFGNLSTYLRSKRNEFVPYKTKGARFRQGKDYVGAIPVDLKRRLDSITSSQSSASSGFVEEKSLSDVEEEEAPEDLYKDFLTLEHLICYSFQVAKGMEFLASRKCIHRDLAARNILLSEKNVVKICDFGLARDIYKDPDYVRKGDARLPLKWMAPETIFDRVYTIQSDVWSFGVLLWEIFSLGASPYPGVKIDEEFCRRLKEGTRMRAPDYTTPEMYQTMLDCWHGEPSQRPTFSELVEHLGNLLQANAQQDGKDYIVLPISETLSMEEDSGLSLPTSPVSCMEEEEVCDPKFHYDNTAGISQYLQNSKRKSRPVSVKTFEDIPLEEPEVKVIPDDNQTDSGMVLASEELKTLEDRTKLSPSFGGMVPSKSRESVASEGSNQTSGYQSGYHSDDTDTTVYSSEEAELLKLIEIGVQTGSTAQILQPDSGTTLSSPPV
T4 sequence (P00533 669-1210 T790M/L858R limits assumed): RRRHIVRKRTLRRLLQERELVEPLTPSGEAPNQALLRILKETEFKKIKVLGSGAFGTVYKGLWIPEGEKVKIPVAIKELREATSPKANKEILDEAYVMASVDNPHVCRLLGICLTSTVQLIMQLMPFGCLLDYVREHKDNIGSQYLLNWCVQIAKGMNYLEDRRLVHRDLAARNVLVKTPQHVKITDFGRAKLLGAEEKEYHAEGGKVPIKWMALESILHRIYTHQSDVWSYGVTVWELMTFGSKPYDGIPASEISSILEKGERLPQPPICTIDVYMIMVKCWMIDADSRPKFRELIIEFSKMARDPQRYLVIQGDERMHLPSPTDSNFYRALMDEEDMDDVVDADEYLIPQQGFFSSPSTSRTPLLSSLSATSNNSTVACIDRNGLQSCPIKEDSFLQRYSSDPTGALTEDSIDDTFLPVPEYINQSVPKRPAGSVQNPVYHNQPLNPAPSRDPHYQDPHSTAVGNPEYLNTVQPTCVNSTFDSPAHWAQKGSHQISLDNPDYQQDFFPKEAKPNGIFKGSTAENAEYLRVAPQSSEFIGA
T2 sequence (P00533 with tags, fused parts or gaps DEL746-750 limits assumed): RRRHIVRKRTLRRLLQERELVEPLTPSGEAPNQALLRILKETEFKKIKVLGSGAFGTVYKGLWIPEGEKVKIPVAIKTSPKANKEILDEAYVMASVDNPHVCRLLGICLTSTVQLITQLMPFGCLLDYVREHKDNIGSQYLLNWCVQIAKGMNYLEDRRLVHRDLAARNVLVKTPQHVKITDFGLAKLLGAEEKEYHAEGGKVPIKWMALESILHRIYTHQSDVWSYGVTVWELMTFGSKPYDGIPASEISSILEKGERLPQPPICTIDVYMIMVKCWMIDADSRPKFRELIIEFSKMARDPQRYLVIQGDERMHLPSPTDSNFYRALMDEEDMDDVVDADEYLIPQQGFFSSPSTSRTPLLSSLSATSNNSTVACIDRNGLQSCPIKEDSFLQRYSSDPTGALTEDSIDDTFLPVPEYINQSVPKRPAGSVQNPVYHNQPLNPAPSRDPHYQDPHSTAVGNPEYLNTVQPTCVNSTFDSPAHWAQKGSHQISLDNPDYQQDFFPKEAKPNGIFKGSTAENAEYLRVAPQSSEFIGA
T3 sequence (P00533 669-1210 L858R limits assumed): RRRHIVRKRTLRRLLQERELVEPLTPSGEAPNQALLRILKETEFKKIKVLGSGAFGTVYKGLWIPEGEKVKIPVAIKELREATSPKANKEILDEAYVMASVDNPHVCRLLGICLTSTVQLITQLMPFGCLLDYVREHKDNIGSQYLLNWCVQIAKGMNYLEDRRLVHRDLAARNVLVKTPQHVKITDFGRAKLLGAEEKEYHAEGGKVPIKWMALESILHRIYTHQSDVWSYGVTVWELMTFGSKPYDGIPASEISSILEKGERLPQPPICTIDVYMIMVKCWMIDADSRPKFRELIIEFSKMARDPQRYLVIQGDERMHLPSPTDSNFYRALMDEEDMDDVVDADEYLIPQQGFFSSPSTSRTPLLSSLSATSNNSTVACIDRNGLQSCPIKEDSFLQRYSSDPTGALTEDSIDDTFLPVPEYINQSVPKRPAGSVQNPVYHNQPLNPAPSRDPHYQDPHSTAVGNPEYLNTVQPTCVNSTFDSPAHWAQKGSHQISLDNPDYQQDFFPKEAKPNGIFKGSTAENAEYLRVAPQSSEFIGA

Row | Compound | pIC50 (KDR) | pIC50 [1] | pIC50 (EGFR mutant L858R) | pIC50 (EGFR mutant L858R/T790M) | pIC50 (JAK3) | pIC50 (SYK) | pIC50 (EGFR mutant T790M) | pIC50 (EGFR mutant Del19/T790M) | pIC50 (H2073 (EGFR wildtype)) | Selectivity over wildtype, Wildtype vs mutant H2073/PC9 (fold) [2] | pIC50 [2] | pIC50 [3] | Selectivity over wildtype, Wildtype vs mutant H2073/H1975 (fold) [3]
1 | C=CC(=O)Nc1cc(Nc2nccc(-n3cc(CN4CCC4)c(C)n3)n2)c(OC)cc1N1CCN(C)CC1 [Compound 17, N-(5-(4-(4-(azetidin-1-ylmethyl)-3-methyl-1H-pyrazol-1-yl)pyrimidin-2-ylamino)-4-methoxy-2-(4-methylpiperazin-1-yl)phenyl)acrylamide] | 6.00 to 6.70 | > 7.70 | > 7.70 | > 7.70 | > 7.70 | 6.00 to 6.70 | > 7.70 | > 7.70 | – | – | – | – | –
2 | C=CC(=O)Nc1cc(Nc2ncc(C)c(-n3cc(CN4CC(O)C4)cn3)n2)c(OC)cc1N1CCOCC1 [Compound 19, N-(5-(4-(4-((3-hydroxyazetidin-1-yl)methyl)-1H-pyrazol-1-yl)-5-methylpyrimidin-2-ylamino)-4-methoxy-2-morpholinophenyl)acrylamide] | 6.00 to 6.70 | > 7.70 | > 7.70 | > 7.70 | > 7.70 | 6.70 to 7.70 | > 7.70 | > 7.70 | < 6.00 | 100-200 fold | > 7.70 | 6.70 to 7.70 | 20-100 fold
3 | C=CC(=O)Nc1cc(Nc2ncc(C)c(-n3cc(CN4C[C@@H](O)[C@@H](O)C4)c(C)n3)n2)c(OC)cc1N1CCOCC1 [Compound 25, N-(5-(4-(4-(((3R,4S)-3,4-dihydroxypyrrolidin-1-yl)methyl)-3-methyl-1H-pyrazol-1-yl)-5-methylpyrimidin-2-ylamino)-4-methoxy-2-morpholinophenyl)acrylamide] | < 6.00 | > 7.70 | > 7.70 | > 7.70 | > 7.70 | 6.00 to 6.70 | > 7.70 | > 7.70 | < 6.00 | >200 fold | > 7.70 | > 7.70 | 101-200 fold
4 | C=CC(=O)Nc1cc(Nc2ncc(C)c(-n3cc(CN4CC(O)C4)c(C)n3)n2)c(OC)cc1N1CCN(C)CC1 [Compound 29, N-(5-(4-(4-((3-hydroxyazetidin-1-yl)methyl)-3-methyl-1H-pyrazol-1-yl)-5-methylpyrimidin-2-ylamino)-4-methoxy-2-(4-methylpiperazin-1-yl)phenyl)acrylamide] | < 6.00 | > 7.70 | > 7.70 | > 7.70 | > 7.70 | 6.70 to 7.70 | > 7.70 | > 7.70 | < 6.00 | <20 fold | 6.70 to 7.70 | 6.70 to 7.70 | <20 fold
5 | C=CC(=O)Nc1cc(Nc2ncc(C)c(-n3cc(CN4CCC4)cn3)n2)c(OC)cc1N1CCOCC1 [Compound 32, N-(5-(4-(4-(azetidin-1-ylmethyl)-1H-pyrazol-1-yl)-5-methylpyrimidin-2-ylamino)-4-methoxy-2-morpholinophenyl)acrylamide] | < 6.00 | > 7.70 | > 7.70 | > 7.70 | > 7.70 | 6.00 to 6.70 | > 7.70 | > 7.70 | < 6.00 | 20-100 fold | 6.00 to 6.70 | 6.70 to 7.70 | 20-100 fold
6 | C=CC(=O)Nc1cc(Nc2nccc(-n3cc(CN4CCC4)cn3)n2)c(OC)cc1N1CCOCC1 [Compound 34, N-(5-(4-(4-(azetidin-1-ylmethyl)-1H-pyrazol-1-yl)pyrimidin-2-ylamino)-4-methoxy-2-morpholinophenyl)acrylamide] | < 6.00 | > 7.70 | 6.70 to 7.70 | > 7.70 | 6.70 to 7.70 | 6.00 to 6.70 | > 7.70 | > 7.70 | – | – | – | – | –
7 | C=CC(=O)Nc1cc(Nc2ncc(C)c(-n3cc(CN4CCC4)cn3)n2)c(OC)cc1N1CCCOCC1 [Compound 40, N-(5-(4-(4-(azetidin-1-ylmethyl)-1H-pyrazol-1-yl)-5-methylpyrimidin-2-ylamino)-4-methoxy-2-(1,4-oxazepan-4-yl)phenyl)acrylamide] | < 6.00 | > 7.70 | 6.70 to 7.70 | > 7.70 | > 7.70 | < 6.00 | > 7.70 | > 7.70 | – | – | – | – | –
8 | C=CC(=O)Nc1cc(Nc2nccc(-n3cc(CN(C)C)c(C)n3)n2)c(OC)cc1N1CCN(C)CC1 [Compound 47, N-(5-(4-(4-((dimethylamino)methyl)-3-methyl-1H-pyrazol-1-yl)pyrimidin-2-ylamino)-4-methoxy-2-(4-methylpiperazin-1-yl)phenyl)acrylamide] | < 6.00 | > 7.70 | > 7.70 | > 7.70 | > 7.70 | 6.00 to 6.70 | > 7.70 | > 7.70 | – | – | – | – | –
9 | C=CC(=O)Nc1cc(Nc2ncc(Cl)c(-n3cc(CN4CC(O)C4)c(C)n3)n2)c(OC)cc1N1CCOCC1 [Compound 49, N-(5-(5-chloro-4-(4-((3-hydroxyazetidin-1-yl)methyl)-3-methyl-1H-pyrazol-1-yl)pyrimidin-2-ylamino)-4-methoxy-2-morpholinophenyl)acrylamide] | < 6.00 | > 7.70 | > 7.70 | > 7.70 | > 7.70 | 6.00 to 6.70 | > 7.70 | > 7.70 | – | – | – | – | –
10 | C=CC(=O)Nc1cc(Nc2nccc(-n3cc(CN4CCC4)c(C)n3)n2)c(OC)cc1-c1ccccc1 [Compound 65, N-(4-(4-(4-(azetidin-1-ylmethyl)-3-methyl-1H-pyrazol-1-yl)pyrimidin-2-ylamino)-5-methoxybiphenyl-2-yl)acrylamide] | < 6.00 | > 7.70 | 6.70 to 7.70 | > 7.70 | 6.70 to 7.70 | < 6.00 | 6.00 to 6.70 | > 7.70 | – | – | – | – | –
11 | C=CC(=O)Nc1cc(Nc2nccc(-n3cc(CN4CCC4)c(-c4ccc(C)cc4)n3)n2)c(OC)cc1N1CCOCC1 [Compound 82, N-(5-(4-(4-(azetidin-1-ylmethyl)-3-p-tolyl-1H-pyrazol-1-yl)pyrimidin-2-ylamino)-4-methoxy-2-morpholinophenyl)acrylamide] | < 6.00 | > 7.70 | 6.70 to 7.70 | > 7.70 | – | < 6.00 | – | > 7.70 | < 6.00 | 101-200 fold | 6.70 to 7.70 | 6.70 to 7.70 | 101-200 fold
12 | CCC(=O)Nc1cc(Nc2nccc(-n3cc(CN(C)C)c(-c4ccccc4)n3)n2)c(OC)cc1N1CCOCC1 [Compound 157, N-(5-(4-(4-((dimethylamino)methyl)-3-phenyl-1H-pyrazol-1-yl)pyrimidin-2-ylamino)-4-methoxy-2-morpholinophenyl)propionamide, reference compound] | – | < 6.00 | < 6.00 | < 6.00 | – | < 6.00 | < 6.00 | < 6.00 | < 6.00 | <20 fold | < 6.00 | < 6.00 | <20 fold
13 | CCC(=O)Nc1cc(Nc2nccc(-n3cc(CN4CCC4)c(-c4ccccc4)n3)n2)c(OC)cc1N1CCOCC1 [Compound 158, N-(5-(4-(4-(azetidin-1-ylmethyl)-3-phenyl-1H-pyrazol-1-yl)pyrimidin-2-ylamino)-4-methoxy-2-morpholinophenyl)propionamide, reference compound] | – | < 6.00 | < 6.00 | < 6.00 | – | < 6.00 | < 6.00 | < 6.00 | < 6.00 | <20 fold | 6.70 to 7.70 | 6.00 to 6.70 | <20 fold
14 | C=C(F)C(=O)Nc1cc(Nc2nccc(-n3cc(CN4CCC4)c(-c4ccccc4)n3)n2)c(OC)cc1N1CCOCC1 [Compound 159, N-(5-(4-(4-(azetidin-1-ylmethyl)-3-phenyl-1H-pyrazol-1-yl)pyrimidin-2-ylamino)-4-methoxy-2-morpholinophenyl)-2-fluoroacrylamide, reference compound] | – | < 6.00 | < 6.00 | 6.70 to 7.70 | – | < 6.00 | < 6.00 | 6.70 to 7.70 | < 6.00 | <20 fold | < 6.00 | < 6.00 | <20 fold
